Data from patent US10172357B2, “Fungicidal composition and method for controlling plant diseases” (ISHIHARA SANGYO KAISHA, LTD., priority 2015, dated 2019).

Test system: Blumeria graminis
Assay: Test on preventive effect against wheat powdery mildew (seed treatment)
Format: in vivo, Blumeria graminis on wheat (cultivar: Norin-61-go)
Settings: seed coating, first leaf, 7 days after inoculation; for Lesion area ratio (%): non-treated plot 90
Source text: 50 g of wheat seeds (cultivar: Norin-61-go), and predetermined amounts of an aqueous suspension containing pyriofenone 30% (WN) (tradename: PROPERTY FLOWABLE), an aqueous suspension containing fluazinam 50% (WN) (tradename: FROWNCIDE SC) and an aqueous suspension containing thiophanate-methyl 75% (WM) (tradename: TOPSIN M sol) so that the respective active ingredient amounts were as identified in Table 1 (g.a.i./100 kg seed), were put in a plastic bag, sufficiently stirred and air-dried to obtain seeds coated with a fungicidal composition. Ten seeds coated with a fungicidal composition were sown in a plastic pot (diameter: 7.5 cm, height: 6.8 cm, cylindrical black plastic pot, soil: culture soil). Wheat plants were cultivated in a greenhouse and at the 1-leaf stage, conidia of Blumeria graminis were dusted and inoculated, and the wheat plants were maintained in a constant temperature chamber at 20° C. The same operation was conducted with respect to seeds coated with the respective active ingredients individually, for comparison, as shown in Table 1. 7 days after the inoculation, the lesion area ratio on the first leaf was examined, and the control value was calculated based on the following formula. Further, theoretical values (control values) by use in combination were also calculated in accordance with the following Colby's formula. Control value=(1−a/b)×100 • a: lesion area ratio in treated plot • b: lesion area ratio in non-treated plot Colby's formula=(X+Y+Z)−(XY+YZ+ZX)/100+XYZ/10,000 • X: control value of component (a) used singly • Y: control value of component (b) used singly • Z: control value of component (c) used singly

[1] = fluazinam 3.3 g.a.i./100 kg seed
[2] = fluazinam 10 g.a.i./100 kg seed
[3] = pyriofenone 30 g.a.i./100 kg seed
[4] = thiophanate-methyl 23.3 g.a.i./100 kg seed
[5] = thiophanate-methyl 35 g.a.i./100 kg seed
[6] = thiophanate-methyl 70 g.a.i./100 kg seed

O=[N+]([O-])c1cc(C(F)(F)F)c(Cl)c([N+](=O)[O-])c1Nc1ncc(C(F)(F)F)cc1Cl [Fluazinam, N-(3-chloro-5-trifluoromethyl-2-pyridyl)-2,6-dinitro-3-chloro-4-trifluoromethylaniline]
Control value [1]: 0
Lesion area ratio (%) [1]: 90%
Control value (fluazinam 5 g.a.i./100 kg seed): 0
Lesion area ratio (%) (fluazinam 5 g.a.i./100 kg seed): 90%
Control value [2]: 0
Lesion area ratio (%) [2]: 90%

COc1cc(C)c(C(=O)c2c(OC)ncc(Cl)c2C)c(OC)c1OC [Pyriofenone, 3-(2,3,4-trimethoxy-6-methylbenzoyl)-5-chloro-2-methoxy-4-methylpyridine]
Control value [3]: 44
Lesion area ratio (%) [3]: 50%

COC(=O)NC(=S)Nc1ccccc1NC(=S)NC(=O)OC [Thiophanate-methyl, 1,2-di-(3-methoxycarbonyl-2-thioureido)benzene]
Control value [4]: 0
Lesion area ratio (%) [4]: 90%
Control value [5]: 33
Lesion area ratio (%) [5]: 60%
Control value [6]: 44
Lesion area ratio (%) [6]: 50%
